Test results as given in ChEMBL document CHEMBL1201862, “PubChem BioAssay data set” (2004).
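In this assay, cells in 96-well plates receive the compound at five concentrations for 48 hours. Endpoints are linearly interpolated between the surrounding concentrations. Here, GI50 denotes the concentration required for 50% inhibition of growth.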 Active and inactive are the calls of the source. No stated cut-off is given here; in the data, active = GI50 up to about 1.1 µM and inactive = higher.

Legend:
Assay in all cases: inhibition of tumour cell growth, NCI panel, 48 h
[1] = system: A498
[2] = system: BT-549
[3] = system: HCT-15
[4] = system: KM12
[5] = system: M14
[6] = system: NCI-H226
[7] = system: OVCAR-3
[8] = system: OVCAR-4
[9] = system: PC-3
[10] = system: SF-268
[11] = system: SK-MEL-2
[12] = system: SNB-75
[13] = system: SR
[14] = system: TK-10
[15] = system: COLO 205
[16] = system: Malme-3M
[17] = system: SW-620
[18] = system: Hs-578T
[19] = system: T47D

Measured: GI50

Cc1ccc(-c2cs/c(=N\c3c(C)n(C)n(-c4ccccc4)c3=O)n2CCO)cc1
inactive: [1] 70 µM | [2] 74.3 µM | [4] > 100 µM | [5] > 100 µM | [6] > 100 µM | [7] > 100 µM | [8] > 100 µM | [9] > 100 µM | [10] > 100 µM | [11] > 100 µM | [12] > 100 µM | [13] > 100 µM | [14] > 100 µM
> 100 µM: [3]

O=NN(CCCl)C(=O)N[C@H]1CC[C@@H](CC(=O)O)CC1
> 100 µM: [3]
inactive: [1] > 100 µM | [15] > 100 µM | [4] > 100 µM | [16] > 100 µM | [6] > 100 µM | [7] > 100 µM | [8] > 100 µM | [10] 33 µM | [11] > 100 µM | [12] > 81.1 µM | [17] > 100 µM

CSC1=N/C(=C\c2ccc(C)cc2)C(=O)N1CN1CCOCC1
34.1 µM: [3]
inactive: [1] 98.2 µM | [15] 42.7 µM | [18] 84.9 µM | [4] 91.8 µM | [5] 95.1 µM | [16] > 100 µM | [6] 31.3 µM | [7] > 100 µM | [9] 58.9 µM | [10] 47.6 µM | [11] > 100 µM | [12] 46.3 µM | [13] 69.3 µM | [17] 40 µM | [14] > 100 µM
active: [8] 0.622 µM

C[Si](C)(C)CNC(=O)OCc1ccccc1
inactive: [1] > 100 µM | [2] 98.9 µM | [15] > 100 µM | [4] > 100 µM | [5] > 100 µM | [6] 66.4 µM | [7] > 100 µM | [8] 87.1 µM | [9] > 100 µM | [10] > 100 µM | [11] > 100 µM | [12] 90.4 µM | [13] 30.6 µM | [17] > 100 µM | [19] 19.1 µM | [14] > 100 µM
> 100 µM: [3]

O[C@@H]1C[C@H]2N3CC[C@@]2(c2cc4c(cc2C3)OCO4)[C@H]2O[C@@H]12
active: [15] < 0.01 µM | [6] 0.0271 µM
> 100 µM: [3]
inactive: [1] > 100 µM | [2] > 100 µM | [18] > 100 µM | [4] > 100 µM | [5] > 100 µM | [16] > 100 µM | [7] > 100 µM | [8] > 100 µM | [9] > 100 µM | [10] > 100 µM | [11] > 100 µM | [12] > 100 µM | [17] > 100 µM | [14] > 100 µM

N#C/C(N)=C(C#N)/N=C/N
> 100 µM: [3]
inactive: [15] > 100 µM | [18] > 100 µM | [4] > 100 µM | [5] > 100 µM | [16] > 100 µM | [7] > 100 µM | [8] > 100 µM | [9] > 100 µM | [10] > 100 µM | [11] > 100 µM | [12] > 100 µM | [13] > 100 µM | [17] > 100 µM | [19] > 100 µM | [14] > 100 µM

COc1cccc(C2C3=C(COC3=O)Oc3cc4c(cc32)OCO4)c1 (stereo not drawn)
active: [1] 0.0264 µM | [15] 0.0233 µM | [18] < 0.0176 µM | [4] < 0.0142 µM | [5] 0.0307 µM | [16] 0.0248 µM | [6] 0.0611 µM | [7] 0.0219 µM | [8] 0.424 µM | [9] 0.0196 µM | [10] 0.0575 µM | [11] < 0.0247 µM | [12] 0.0194 µM | [13] < 0.0135 µM | [17] 0.0188 µM | [14] 0.0766 µM
inactive: [2] > 100 µM
0.0172 µM: [3]

Clc1cccc(Cl)c1C1ON=C(c2ccccc2)N1C12CC3CC(CC(C3)C1)C2 (stereo not drawn)
active: [12] 0.387 µM
inactive: [1] 56.4 µM | [15] 11.9 µM | [18] 24.2 µM | [4] 1.63 µM | [5] 22.3 µM | [16] 14.8 µM | [6] 43.3 µM | [7] 9.38 µM | [8] 25.3 µM | [9] 4.11 µM | [10] 82 µM | [11] 12.1 µM | [13] 5.35 µM | [19] 11.4 µM | [14] 63.7 µM
9.75 µM: [3]

Oc1ccc(-c2nc3ccc(Cl)cc3s2)cc1
inactive: [1] 20 µM | [2] 18.7 µM | [15] 17.7 µM | [4] 16.3 µM | [5] > 100 µM | [16] 19.3 µM | [6] 20 µM | [7] 23.5 µM | [9] 20.4 µM | [10] 17.2 µM | [11] 18.4 µM | [13] 23.7 µM | [17] 21.1 µM | [14] 20.4 µM
15.7 µM: [3]
